Data reported in paper PMC6588349 (eLife, 2019).
Like-named read-outs stand apart in the source and are kept apart here.

Columns and labels:
mGluR2-N735D = target: T1, mGluR2-N735D (Rattus norvegicus, UniProt P31421, N735D); experiment: GIRK activation assay, whole cell patch clamp, mGluR2-N735D; type: cell-based; details: relative to wild-type / saturating glutamate
T1 construct: expressed in transfected cells; host or cells: HEK 293T
Procedure: (§1) Whole-cell patch clamp recordings from single isolated cells were performed 24–36 hr after transfection in a high-potassium extracellular solution containing (in mM): 120 KCl, 29 NaCl, 1 MgCl2, 2 CaCl2 and 10 HEPES, pH 7.4. Cells were voltage clamped to −60 mV using an Axopatch 200B amplifier (Axon Instruments) and membrane currents were recorded. Glass pipettes of resistance between 3 and 8 MΩ were filled with intracellular solution containing (in mM): 140 KCl, 10 HEPES, 3 Na2ATP, 0.2 Na2GTP, 5 EGTA and 3 MgCl2, pH 7.4. Data were acquired with a 2 kHz acquisition rate and filtered with the amplifier 4-pole Bessel filter at 1 kHz. Drugs were prepared in extracellular solution and applied using a gravity-driven perfusion system. Data were analyzed with Clampfit (Molecular Devices) and Prism (GraphPad). Data for all conditions came from at least two separate transfections.

SNAP-mGluR2-TMD-N735D [1] = target: T2, SNAP-mGluR2-TMD-N735D (Rattus norvegicus, UniProt P31421, N735D); experiment: Inter-TMD FRET assay, N735D mutant; type: cell-based; details: SNAP-mGluR2-TMD-N735D; normalized to saturating LY48; read-out: inter-TMD FRET increase EC50, N735D
T2 construct: Following SNAP tag, mGluR2 truncatd to position Q558; N at position 735 replaced with D; expressed in transfected cells; host or cells: HEK 293T
Procedure: (§2) Fluorophores were diluted in EX solution, which was also used to wash coverslips following labeling and prior to mounting on the microscope. After labeling, cells were mounted on an inverted microscope (Olympus IX73) and imaged with a 60x objective. […] Clusters of cells were analyzed together using ImageJ and FRET was calculated as FRET=(IAcceptor)/(IDonor +IAcceptor) where I is fluorescence intensity. No corrections were made for bleed-through between channels or the contribution of donor-donor or acceptor-acceptor dimers as analysis was limited to relative FRET changes between drug treatments rather than absolute FRET values. […] FRET changes calculated for dose–response curves were normalized to the response to saturating […] applied within the same recording and dose–response curves were obtained from multiple cell clusters and averaged from at least three separate experiments. Dose–response curves were fit using Prism (Graphpad). All drugs were purchased from Tocris, prepared in EX solution, and delivered with a gravity-driven perfusion system. For kinetics measurements a pressurized perfusion system (Automate Scientific) was used to produce a flow rate of 0.5 mL/s. Kinetic analysis was performed in Microsoft Excel. The time between 10% and 90% FRET increase or decrease was determined manually. […]

SNAP-mGluR2-TMD-N735D [2] = experiment: Inter-TMD FRET assay, N735D mutant; type: cell-based, Rattus norvegicus; details: N735D compared to wild-type receptor
Procedure: as §2

SNAP-mGluR2-R57A = target: T3, SNAP-mGluR2-R57A (Rattus norvegicus, UniProt P31421, R57A); experiment: GIRK activation assay, whole cell patch clamp, SNAP-mGluR2-R57A; type: cell-based
T3 construct: expressed in transfected cells; host or cells: HEK 293T
Procedure: (§3) Cells were cultured in DMEM with 5% FBS on poly-L-lysine-coated glass coverslips. DNA plasmids were transfected into cells using Lipofectamine 3000 (Thermo Fisher). […] For single-molecule pulldown (SiMPull) experiments, cells were transfected with 0.7 μg DNA of HA and SNAP-tagged receptor constructs, unless otherwise noted. For FRET experiments, cells were transfected with either SNAP-tagged constructs at 0.5–0.7 μg of DNA/well or SNAP and CLIP-tagged constructs at a ratio of 1:2 with 0.3 μg of SNAP DNA/well.
as §1

[3] = target: T4, isolated mGluR2 TMD (SNAP-mGluR2-TMD) (Rattus norvegicus, UniProt P31421); experiment: GIRK activation assay, whole cell patch clamp, isolated mGluR2 TMD; type: cell-based; details: normalized to saturating LY48
T4 construct: mGluR2-TMD (rat) starts at Q558; expressed in transfected cells; host or cells: HEK 293T
Procedure: as §3, §1

full-length mGluR2 = target: T5, full-length mGluR2 (Rattus norvegicus, UniProt P31421); experiment: Calcium imaging assay, HEK cells with full-length mGluR2, GCaMP6f and Gαiq chimera; type: cell-based
T5 construct: HEK 293T cells expressing full-length mGluR2; expressed in transfected cells; host or cells: HEK 293T
Procedure: as §3
Experiments were conducted with continuous gravity-driven perfusion on an inverted microscope (Olympus IX73) and imaged with a 20x objective. […] Regions of interest were selected in Olympus cellSens software and represent single cells or small cell clusters (2–3 cells). Data analysis was performed in Microsoft Excel, where intensities were normalized to the baseline prior to drug application. Dose–response curves were fit using Prism (Graphpad) and data comes from at least two independent experiments for each LY48 concentration.

T3 sequence (P31421 19-872 R57A): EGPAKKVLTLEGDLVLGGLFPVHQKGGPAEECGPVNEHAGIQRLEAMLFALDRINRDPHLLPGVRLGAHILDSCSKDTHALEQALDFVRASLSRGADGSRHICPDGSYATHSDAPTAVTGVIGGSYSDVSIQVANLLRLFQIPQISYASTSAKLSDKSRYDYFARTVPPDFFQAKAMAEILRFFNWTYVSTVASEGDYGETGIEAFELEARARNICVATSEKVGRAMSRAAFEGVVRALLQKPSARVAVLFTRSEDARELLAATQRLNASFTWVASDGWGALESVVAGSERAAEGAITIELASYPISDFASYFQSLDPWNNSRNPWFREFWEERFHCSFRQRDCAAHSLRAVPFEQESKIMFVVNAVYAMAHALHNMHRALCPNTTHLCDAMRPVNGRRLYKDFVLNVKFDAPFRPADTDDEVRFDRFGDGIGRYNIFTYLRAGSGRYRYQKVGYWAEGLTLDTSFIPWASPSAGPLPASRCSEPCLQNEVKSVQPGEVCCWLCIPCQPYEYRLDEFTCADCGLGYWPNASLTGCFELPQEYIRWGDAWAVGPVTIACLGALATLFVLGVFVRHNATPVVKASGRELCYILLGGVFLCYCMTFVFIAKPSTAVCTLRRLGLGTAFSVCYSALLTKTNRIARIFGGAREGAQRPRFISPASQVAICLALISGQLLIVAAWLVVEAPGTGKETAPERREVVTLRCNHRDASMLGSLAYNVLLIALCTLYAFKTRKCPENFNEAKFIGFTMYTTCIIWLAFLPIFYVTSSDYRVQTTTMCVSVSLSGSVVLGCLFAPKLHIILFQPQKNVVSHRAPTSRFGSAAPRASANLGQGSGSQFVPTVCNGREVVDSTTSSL
T4 sequence (P31421 558-872 limits assumed): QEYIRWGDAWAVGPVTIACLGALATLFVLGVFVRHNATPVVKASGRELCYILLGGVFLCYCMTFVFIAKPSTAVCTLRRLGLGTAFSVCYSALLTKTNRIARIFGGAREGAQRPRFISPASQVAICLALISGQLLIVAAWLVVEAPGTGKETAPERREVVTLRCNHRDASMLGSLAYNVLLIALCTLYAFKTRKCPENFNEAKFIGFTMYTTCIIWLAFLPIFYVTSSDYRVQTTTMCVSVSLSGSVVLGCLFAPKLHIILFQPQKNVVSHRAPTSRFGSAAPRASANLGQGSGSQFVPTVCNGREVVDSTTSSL
T5 sequence (P31421 19-872): as the sequence (P31421 19-872 R57A) above, with A39R counted along it
T2 sequence (P31421 558-872 N735D): as the sequence (P31421 558-872 limits assumed) above, with N178D counted along it
T1 sequence (P31421 19-872 N735D): as the sequence (P31421 19-872 R57A) above, with A39R, N717D counted along it

COc1ccccc1Oc1ccc(N(Cc2cccnc2)S(=O)(=O)CC(F)(F)F)cc1 [LY48]
GIRK activation of mGluR2-N735D (mGluR2-N735D): drastically reduced activation
EC50 (SNAP-mGluR2-TMD-N735D [1]): 20.5 ± 1.4 µM
rightward shift of inter-TMD FRET dose-response curve, N735D versus wild-type (SNAP-mGluR2-TMD-N735D [2]): ~ 20 fold
EC50 (SNAP-mGluR2-R57A; SNAP-mGluR2-R57A, normalized to saturating glutamate, mean ± s.e.m., read-out: GIRK activation EC50): 0.29 ± 0.08 µM
EC50 (SNAP-mGluR2-R57A; mGluR2-R57A, read-out: GIRK activation EC50 (approximate)): ~0.3 µM
maximal PAM-induced GIRK activation relative to glutamate (SNAP-mGluR2-R57A; mGluR2-R57A, relative to glutamate): ~ 70%
EC50 [3]: 0.14 ± 0.01 µM
EC50 (full-length mGluR2): 1.2 ± 0.2 µM
